Experimental findings from patent US11440947B2, “Peptides and combination of peptides for use in immunotherapy against various tumors” (Immatics Biotechnologies GmbH, priority 2015, dated 2022) are described below.

One assay concerns the target HLA-A*02:01 (Homo sapiens, UniProt P04439, D140Y/D185E/D98H/E176V/E277Q/G131W/G231S/I119V/I121R/I166T/I218V/L300P/L318F/N151K/N90K/P208A/P217A/Q86G/Q94H/R138H/R169H/T345S). Kind of assay: MHC binding assay: UV-ligand exchange, ELISA on beta2m of stabilized MHC complexes (peptide exchange yield). The settings on record: binding to HLA-A*02:01, UV-ligand exchange, β2m ELISA. The source says: Candidate peptides for T cell based therapies according to the present invention were further tested for their MHC binding capacity (affinity). The individual peptide-MHC complexes were produced by UV-ligand exchange, where a UV-sensitive peptide is cleaved upon UV-irradiation, and exchanged with the peptide of interest as analyzed. Only peptide candidates that can effectively bind and stabilize the peptide-receptive MHC molecules prevent dissociation of the MHC complexes. To determine the yield of the exchange reaction, an ELISA was performed based on the detection of the light chain (β2m) of stabilized MHC complexes. The assay was performed as generally described in Rodenko et al. (Rodenko et al., 2006).
96 well MAXISorp plates (NUNC) were coated over night with 2 ug/ml streptavidin in PBS at room temperature, washed 4× and blocked for 1 h at 37° C. in 2% BSA containing blocking buffer. Refolded HLA-A*02:01/MLA-001 monomers served as standards, covering the range of 15-500 ng/ml. Peptide-MHC monomers of the UV-exchange reaction were diluted 100 fold in blocking buffer. Samples were incubated for 1 h at 37° C., washed four times, incubated with 2 ug/ml HRP conjugated anti-β2m for 1 h at 37° C., washed again and detected with TMB solution that is stopped with […]. Absorption was measured at 450 nm. Candidate peptides that show a high exchange yield (preferably higher than 50%, most preferred higher than 75%) are generally preferred for a generation and production of antibodies or fragments thereof, and/or T cell receptors or fragments thereof, as they show sufficient avidity to the MHC molecules and prevent dissociation of the MHC complexes.
On the technique in general: An ELISA detects its analyte on a solid surface through an enzyme-linked reagent.
Turning to “1 (KLQEKIQEL; listed as Homo sapiens) [compound 1]”, the “Peptide exchange (MHC class I binding score, peptide exchange yield)” value (“Peptide exchange” below) is given as “++++ (>75% = ++++)”.

As for “6 (FLNAIETAL; listed as Homo sapiens) [compound 6]”, the “Peptide exchange” value is on record as “++++ (>75% = ++++)”.

For “17 (GLLPSAESIKL; listed as Homo sapiens) [compound 17]”, the “Peptide exchange” value is “++++ (>75% = ++++)”.

Turning to “84 (FLLEREQLL; listed as Homo sapiens) [compound 84]”, the “Peptide exchange” value is recorded as “++++ (>75% = ++++)”.

Take “92 (RLFEEVLGV; listed as Homo sapiens) [compound 92]”: the “Peptide exchange” value is reported as “++++ (>75% = ++++)”.

Take “161 (NLLDENVCL; listed as Homo sapiens) [compound 161]”: the “Peptide exchange” value is on record as “++++ (>75% = ++++)”.

Turning to “178 (SLVSWQLLL; listed as Homo sapiens) [compound 178]”, the “Peptide exchange” value is on record as “++++ (>75% = ++++)”.

Take “206 (GLDAFRIFL; listed as Homo sapiens) [compound 206]”: the “Peptide exchange” value is reported as “++++ (>75% = ++++)”.

As to “234 (VLLNEILEQV; listed as Homo sapiens) [compound 234]”, the “Peptide exchange” value is “++++ (>75% = ++++)”.

Take “269 (GLLDCPIFL; listed as Homo sapiens) [compound 269]”: the “Peptide exchange” value is recorded as “++++ (>75% = ++++)”.

For another assay, the system named is CD8+ T cells. Kind of assay: In vitro immunogenicity: in vitro T-cell priming with aAPCs loaded with peptide/MHC complexes and anti-CD28, pMHC multimer readout. In kind it is cell-based, human. To be noted: HLA-A*02 restricted peptides; percentage of positive wells among evaluable. The text has this: In order to obtain information regarding the immunogenicity of the TUMAPs of the present invention, the inventors performed investigations using an in vitro T-cell priming assay based on repeated stimulations of CD8+ T cells with artificial antigen presenting cells (aAPCs) loaded with peptide/MHC complexes and anti-CD28 antibody.
In order to perform in vitro stimulations by artificial antigen presenting cells loaded with peptide-MHC complex (pMHC) and anti-CD28 antibody, the inventors first isolated CD8+ T cells from fresh HLA-A*02 leukapheresis products via positive selection using CD8 microbeads (Miltenyi Biotec, Bergisch-Gladbach, Germany) of healthy donors obtained from the University clinics Mannheim, Germany, after informed consent. PBMCs and isolated CD8+ lymphocytes were incubated in T-cell medium (TCM) until use consisting of RPMI-Glutamax (Invitrogen, Karlsruhe, Germany) supplemented with 10% heat inactivated human AB serum (PAN-Biotech, Aidenbach, Germany), 100 U/ml Penicillin/100 μg/ml Streptomycin (Cambrex, Cologne, Germany), 1 mM sodium pyruvate (CC Pro, Oberdorla, Germany), 20 μg/ml Gentamycin (Cambrex). 2.5 ng/ml IL-7 (PromoCell, Heidelberg, Germany) and 10 U/ml IL-2 (Novartis Pharma, Nürnberg, Germany) were also added to the TCM at this step. Generation of pMHC/anti-CD28 coated beads, T-cell stimulations and readout was performed in a highly defined in vitro system using four different pMHC molecules per stimulation condition and 8 different pMHC molecules per readout condition.
The purified co-stimulatory mouse IgG2a anti human CD28 Ab 9.3 (Jung et al., 1987) was chemically biotinylated using Sulfo-N-hydroxysuccinimidobiotin as recommended by the manufacturer (Perbio, Bonn, Germany). Beads used were 5.6 μm diameter streptavidin coated polystyrene particles (Bangs Laboratories, Illinois, USA).
pMHC used for positive and negative control stimulations were A*0201/MLA-001 (peptide […] (SEQ ID NO. 289) from modified Melan-A/MART-1) and A*0201/DDX5-001 ([…] from DDX5, SEQ ID NO. 290), respectively.
800.000 beads/200 μl were coated in 96-well plates in the presence of 4×12.5 ng different biotin-pMHC, washed and 600 ng biotin anti-CD28 were added subsequently in a volume of 200 μl. Stimulations were initiated in 96-well plates by co-incubating […] CD8+ T cells with 2×10^5 washed coated beads in 200 μl TCM supplemented with 5 ng/ml IL-12 (PromoCell) for 3 days at 37° C. Half of the medium was then exchanged by fresh TCM supplemented with 80 U/ml IL-2 and incubating was continued for 4 days at 37° C. This stimulation cycle was performed for a total of three times. For the pMHC multimer readout using 8 different pMHC molecules per condition, a two-dimensional combinatorial coding approach was used as previously described (Andersen et al., 2012) with minor modifications encompassing coupling to 5 different fluorochromes. Finally, multimeric analyses were performed by staining the cells with Live/dead near IR dye (Invitrogen, Karlsruhe, Germany), CD8-FITC antibody clone SK1 (BD, Heidelberg, Germany) and fluorescent pMHC multimers. For analysis, a BD LSRII SORP cytometer equipped with appropriate lasers and filters was used. Peptide specific cells were calculated as percentage of total CD8+ cells. Evaluation of multimeric analysis was done using the FlowJo software (Tree Star, Oreg., USA). In vitro priming of specific multimer+CD8+ lymphocytes was detected by comparing to negative control stimulations.
Exemplary flow cytometry results after TUMAP-specific multimer staining for 15 peptides of the invention are shown in FIGS. 3 and 6 together with corresponding negative controls.
Regarding “4 (VLFGELPAL; listed as Homo sapiens) [compound 4]”, the “Wells positive [%]” value is “+ (<20% = +)”.

For “9 (SLITGQDLLSV; listed as Homo sapiens) [compound 9]”, the “Wells positive [%]” value is listed as “+ (<20% = +)”.

Regarding “14 (YTFSGDVQL; listed as Homo sapiens) [compound 14]”, the “Wells positive [%]” value is “+ (<20% = +)”.

As to “17 (GLLPSAESIKL; listed as Homo sapiens) [compound 17]”, the “Wells positive [%]” value was “+ (<20% = +)”.

With “27 (GLLGKVTSV; listed as Homo sapiens) [compound 27]”, the “Wells positive [%]” value is “+ (<20% = +)”.

Turning to “29 (KMISAIPTL; listed as Homo sapiens) [compound 29]”, the “Wells positive [%]” value is on record as “+ (<20% = +)”.

As to “34 (TLNTLDINL; listed as Homo sapiens) [compound 34]”, the “Wells positive [%]” value is recorded as “++++ (>=70% = ++++)”.

Take “35 (VIIKGLEEI; listed as Homo sapiens) [compound 35]”: the “Wells positive [%]” value is recorded as “+ (<20% = +)”.

For “39 (YLEDGFAYV; listed as Homo sapiens) [compound 39]”, the “Wells positive [%]” value is listed as “++++ (>=70% = ++++)”.

Regarding “50 (ILLSVLHQL; listed as Homo sapiens) [compound 50]”, the “Wells positive [%]” value was “+ (<20% = +)”.

In the case of “66 (AMFPDTIPRV; listed as Homo sapiens) [compound 66]”, the “Wells positive [%]” value is “+ (<20% = +)”.

As for “77 (ALYGNVQQV; listed as Homo sapiens) [compound 77]”, the “Wells positive [%]” value is recorded as “+ (<20% = +)”.

For the substance “89 (SLAETIFIV; listed as Homo sapiens) [compound 89]”, the “Wells positive [%]” value is given as “+ (<20% = +)”.

Consider “97 (KLFEKSTGL; listed as Homo sapiens) [compound 97]”, for which the “Wells positive [%]” value is reported as “+ (<20% = +)”.

With “101 (SLLEVNEASSV; listed as Homo sapiens) [compound 101]”, the “Wells positive [%]” value was “+ (<20% = +)”.

As to “102 (GLYPVTLVGV; listed as Homo sapiens) [compound 102]”, the “Wells positive [%]” value is “+ (<20% = +)”.

Regarding “121 (ALYVQAPTV; listed as Homo sapiens) [compound 121]”, the “Wells positive [%]” value is on record as “+ (<20% = +)”.

As for “157 (ILQDGQFLV; listed as Homo sapiens) [compound 157]”, the “Wells positive [%]” value was “+ (<20% = +)”.

Consider “233 (SLFESLEYL; listed as Homo sapiens) [compound 233]”, for which the “Wells positive [%]” value is on record as “+ (<20% = +)”.

Consider “236 (KMSELQTYV; listed as Homo sapiens) [compound 236]”, for which the “Wells positive [%]” value was “+ (<20% = +)”.

Regarding “242 (KLQEEIPVL; listed as Homo sapiens) [compound 242]”, the “Wells positive [%]” value is given as “+ (<20% = +)”.

Turning to “246 (ALAGIVTNV; listed as Homo sapiens) [compound 246]”, the “Wells positive [%]” value is “+ (<20% = +)”.

Consider “254 (ALGDKFLLRV; listed as Homo sapiens) [compound 254]”, for which the “Wells positive [%]” value is given as “+ (<20% = +)”.

“255 (FLMKNSDLYGA; listed as Homo sapiens) [compound 255]”: the “Wells positive [%]” value is listed as “+ (<20% = +)”.

As for “257 (KLIDHQGLYL; listed as Homo sapiens) [compound 257]”, the “Wells positive [%]” value is “+ (<20% = +)”.

Turning to “260 (ALNESLVEC; listed as Homo sapiens) [compound 260]”, the “Wells positive [%]” value is “+ (<20% = +)”.

Consider “263 (SIIEYLPTL; listed as Homo sapiens) [compound 263]”, for which the “Wells positive [%]” value is “+ (<20% = +)”.

Take “264 (TLHDQVHLL; listed as Homo sapiens) [compound 264]”: the “Wells positive [%]” value is on record as “+ (<20% = +)”.

On to “267 (YLLDMPLWYL; listed as Homo sapiens) [compound 267]”, for which the “Wells positive [%]” value is “+ (<20% = +)”.

The same assay, now with this note: percentage of positive donors; CD8+ T cells of healthy HLA-A*02 donors, three stimulation cycles, multimer staining.
On to “287 (KIQEILTQV; listed as Homo sapiens) [compound 287]”, for which the donors entry is listed as “+++ (50%-69%- +++)”.

In the case of “288 (SLYKGLLSV; listed as Homo sapiens) [compound 288]”, the donors result is listed as “++++ (>= 70% = ++++)”.

The assay is the same for the next values; noted with them: percentage of positive wells; CD8+ T cells of healthy HLA-A*02 donors, three stimulation cycles, multimer staining.
For the substance “287 (KIQEILTQV; listed as Homo sapiens) [compound 287]”, the wells entry was “+ (<20% = +)”.
